Reference: ChEMBL document CHEMBL3045481, “Insecticide-induced resurgence of the whitebacked planthopper Sogatella furcifera (Horvath) (Hemiptera: Delphacidae) on rice varieties with different levels of resistance” (Crop Prot, 2011)

How the values were obtained:
Oryza sativa [1] = experiment: Effect on reducing sugar level in Sogatella furcifera-sensitive Oryza sativa (rice) plant ARC6248 leaf blade measured per gram of dry weight at 0.025% concentration (reference value: 8.37 mg/g dry wt); assay type: ADME, organism-based; conditions: in vivo
Sogatella furcifera [2] = experiment: Insecticidal activity against Sogatella furcifera on insect-resistanct rice plant PR116 assessed as nymphal duration at 0.025% concentration (reference value: 11.75 days); assay type: functional
Oryza sativa [3] = experiment: Effect on total protein level in Sogatella furcifera-sensitive Oryza sativa (rice) plant ARC6248 leaf sheath measured per gram of dry weight at 0.025% concentration (reference value: 6.11 mg/g […]); assay type: ADME, organism-based; conditions: in vivo
Oryza sativa [4] = experiment: Effect on total protein level in Sogatella furcifera-sensitive Oryza sativa (rice) plant ARC6248 leaf blade measured per gram of dry weight at 0.025% concentration (reference value: 17.67 mg/g […]); assay type: ADME, organism-based; conditions: in vivo
Oryza sativa [5] = experiment: Effect on total amino acids level in Sogatella furcifera-sensitive Oryza sativa (rice) plant ARC6248 leaf sheath measured per gram of dry weight at 0.025% concentration (reference value: 2.11 mg/g fresh wt); assay type: ADME, organism-based; conditions: in vivo
Sogatella furcifera [6] = experiment: Insecticidal activity against Sogatella furcifera on insect-sensitive rice plant ARC6248 assessed as growth index at 0.025% concentration (reference value: 2.38%); assay type: functional
Oryza sativa [7] = experiment: Effect on total phenols level in Sogatella furcifera-resistanct Oryza sativa (rice) plant PR116 leaf blade measured per gram of dry weight at 0.025% concentration (reference value: 8.08 mg/g dry wt); assay type: ADME, organism-based; conditions: in vivo
Oryza sativa [8] = experiment: Effect on total sugar level in Sogatella furcifera-sensitive Oryza sativa (rice) plant ARC6248 leaf blade measured per gram of dry weight at 0.025% concentration (reference value: 34.05 mg/g dry wt); assay type: ADME, organism-based; conditions: in vivo
Oryza sativa [9] = experiment: Effect on total amino acids level in Sogatella furcifera-resistanct Oryza sativa (rice) plant PR116 leaf sheath measured per gram of dry weight at 0.025% concentration (reference value: 2.58 mg/g […]); assay type: ADME, organism-based; conditions: in vivo
Sogatella furcifera [10] = experiment: Insecticidal activity against Sogatella furcifera on insect-resistanct rice plant PR116 assessed as growth index at 0.025% concentration (reference value: 6.02%); assay type: functional
Oryza sativa [11] = experiment: Effect on total phenols level in Sogatella furcifera-sensitive Oryza sativa (rice) plant ARC6248 leaf sheath measured per gram of dry weight at 0.025% concentration (reference value: 12.75 mg/g dry wt); assay type: ADME, organism-based; conditions: in vivo
Oryza sativa [12] = experiment: Effect on total protein level in Sogatella furcifera-resistanct Oryza sativa (rice) plant PR116 leaf blade measured per gram of dry weight at 0.025% concentration (reference value: 21.67 mg/g fresh wt); assay type: ADME, organism-based; conditions: in vivo
Sogatella furcifera [13] = experiment: Insecticidal activity against Sogatella furcifera on insect-sensitive rice plant ARC6248 assessed as nymphal survival at 0.025% concentration (reference value: 34.17%); assay type: functional
Oryza sativa [14] = experiment: Effect on total amino acids level in Sogatella furcifera-resistanct Oryza sativa (rice) plant PR116 leaf blade measured per gram of dry weight at 0.025% concentration (reference value: 3.91 mg/g […]); assay type: ADME, organism-based; conditions: in vivo
Oryza sativa [15] = experiment: Effect on total sugar level in Sogatella furcifera-sensitive Oryza sativa (rice) plant ARC6248 leaf sheath measured per gram of dry weight at 0.025% concentration (reference value: 25.98 mg/g dry wt); assay type: ADME, organism-based; conditions: in vivo
Oryza sativa [16] = experiment: Effect on total sugar level in Sogatella furcifera-resistanct Oryza sativa (rice) plant PR116 leaf blade measured per gram of dry weight at 0.025% concentration (reference value: 36.16 mg/g dry wt); assay type: ADME, organism-based; conditions: in vivo
Oryza sativa [17] = experiment: Effect on reducing sugar level in Sogatella furcifera-resistanct Oryza sativa (rice) plant PR116 leaf blade measured per gram of dry weight at 0.025% concentration (reference value: 9.35 mg/g dry wt); assay type: ADME, organism-based; conditions: in vivo
Oryza sativa [18] = experiment: Effect on reducing sugar level in Sogatella furcifera-resistanct Oryza sativa (rice) plant PR116 leaf sheath measured per gram of dry weight at 0.025% concentration (reference value: 7.50 mg/g dry wt); assay type: ADME, organism-based; conditions: in vivo
Oryza sativa [19] = experiment: Effect on total amino acids level in Sogatella furcifera-sensitive Oryza sativa (rice) plant ARC6248 leaf blade measured per gram of dry weight at 0.025% concentration (reference value: 3.54 mg/g […]); assay type: ADME, organism-based; conditions: in vivo
Sogatella furcifera [20] = experiment: Insecticidal activity against Sogatella furcifera on insect-resistanct rice plant PR116 assessed as resurgence ratio at 0.025% concentration; assay type: functional
Sogatella furcifera [21] = experiment: Insecticidal activity against Sogatella furcifera on insect-resistanct rice plant PR116 assessed as nymphal survival at 0.025% concentration (reference value: 70.28%); assay type: functional
Oryza sativa [22] = experiment: Effect on reducing sugar level in Sogatella furcifera-sensitive Oryza sativa (rice) plant ARC6248 leaf sheath measured per gram of dry weight at 0.025% concentration (reference value: 6.41 mg/g dry wt); assay type: ADME, organism-based; conditions: in vivo
Sogatella furcifera [23] = experiment: Insecticidal activity against Sogatella furcifera on insect-sensitive rice plant ARC6248 assessed as nymphal duration at 0.025% concentration (reference value: 14.48 days); assay type: functional
Oryza sativa [24] = experiment: Effect on total phenols level in Sogatella furcifera-sensitive Oryza sativa (rice) plant ARC6248 leaf blade measured per gram of dry weight at 0.025% concentration (reference value: 17.08 mg/g dry wt); assay type: ADME, organism-based; conditions: in vivo
Oryza sativa [25] = experiment: Effect on total sugar level in Sogatella furcifera-resistanct Oryza sativa (rice) plant PR116 leaf sheath measured per gram of dry weight at 0.025% concentration (reference value: 30.27 mg/g dry wt); assay type: ADME, organism-based; conditions: in vivo
Oryza sativa [26] = experiment: Effect on total protein level in Sogatella furcifera-resistanct Oryza sativa (rice) plant PR116 leaf sheath measured per gram of dry weight at 0.025% concentration (reference value: 7.06 mg/g fresh wt); assay type: ADME, organism-based; conditions: in vivo
Sogatella furcifera [27] = experiment: Insecticidal activity against Sogatella furcifera on insect-sensitive rice plant ARC6248 assessed as resurgence ratio at 0.025% concentration; assay type: functional
Oryza sativa [28] = experiment: Effect on total phenols level in Sogatella furcifera-resistanct Oryza sativa (rice) plant PR116 leaf sheath measured per gram of dry weight at 0.025% concentration (reference value: 5.75 mg/g dry wt); assay type: ADME, organism-based; conditions: in vivo

SMILES: CC1(C)[C@H](C(=O)O[C@H](C#N)c2cccc(Oc3ccccc3)c2)[C@@H]1C=C(Br)Br [DELTAMETHRIN]
- Activity (Oryza sativa [1]): 12.28 mg
- Time (Sogatella furcifera [2]): 11.63 days
- Activity (Oryza sativa [3]): 7.78 mg
- Activity (Oryza sativa [4]): 19.83 mg
- Activity (Oryza sativa [5]): 2.95 mg
- growth inhibition (GI) (Sogatella furcifera [6]): 2.74%
- Activity (Oryza sativa [7]): 6.92 mg
- Activity (Oryza sativa [8]): 38.84 mg
- Activity (Oryza sativa [9]): 3.73 mg
- growth inhibition (GI) (Sogatella furcifera [10]): 6.77%
- Activity (Oryza sativa [11]): 12 mg
- Activity (Oryza sativa [12]): 23.89 mg
- Survival (Sogatella furcifera [13]): 38.89%
- Activity (Oryza sativa [14]): 4.62 mg
- Activity (Oryza sativa [15]): 35.36 mg
- Activity (Oryza sativa [16]): 44.2 mg
- Activity (Oryza sativa [17]): 14.35 mg
- Activity (Oryza sativa [18]): 13.8 mg
- Activity (Oryza sativa [19]): 4.21 mg
- Ratio (Sogatella furcifera [20]): 1.75
- Survival (Sogatella furcifera [21]): 78.05%
- Activity (Oryza sativa [22]): 10.76 mg
- Time (Sogatella furcifera [23]): 14.32 days
- Activity (Oryza sativa [24]): 17.08 mg
- Activity (Oryza sativa [25]): 35.62 mg
- Activity (Oryza sativa [26]): 8 mg
- Ratio (Sogatella furcifera [27]): 1.28
- Activity (Oryza sativa [28]): 5.42 mg
